In patent US8841291B2, “Selective hydroxamic acid based MMP-12 and MMP-13 inhibitors” (Novartis AG, priority 2008, dated 2014):
Read-outs that look alike come from different tables or passages of the source.

Assays:
Gelatinase (MMP-2) = molecular target: T1, Gelatinase (MMP-2) (Homo sapiens, UniProt P08253); test: Gelatinase (MMP-2) inhibitory activity, fluorogenic peptide substrate assay; format: biochemical
T1 sequence (P08253 110-660): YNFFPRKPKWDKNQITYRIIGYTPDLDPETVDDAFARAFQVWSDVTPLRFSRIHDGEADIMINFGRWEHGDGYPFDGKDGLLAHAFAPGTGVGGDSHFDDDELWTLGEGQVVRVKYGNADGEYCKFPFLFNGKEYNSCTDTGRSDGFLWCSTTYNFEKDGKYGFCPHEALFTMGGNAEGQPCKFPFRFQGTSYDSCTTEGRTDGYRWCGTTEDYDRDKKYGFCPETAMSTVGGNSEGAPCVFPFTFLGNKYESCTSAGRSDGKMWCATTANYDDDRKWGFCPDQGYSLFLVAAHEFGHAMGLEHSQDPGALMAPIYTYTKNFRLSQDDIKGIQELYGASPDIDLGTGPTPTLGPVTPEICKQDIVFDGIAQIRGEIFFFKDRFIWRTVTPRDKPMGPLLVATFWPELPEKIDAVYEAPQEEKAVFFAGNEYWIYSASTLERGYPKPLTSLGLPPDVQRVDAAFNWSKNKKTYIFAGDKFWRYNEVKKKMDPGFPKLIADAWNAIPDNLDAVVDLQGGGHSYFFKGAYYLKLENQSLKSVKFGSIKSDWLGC
Experimental: (§1) Stock solutions of inhibitors (0.03 mM-3 mM) are also prepared in DMSO. The inhibitors are diluted into the assay solutions, and the controls use an equal volume of DMSO so that the final DMSO concentration from the inhibitor and substrate dilutions in all assays is 1.0%. Assays are performed in an assay buffer (100 mM sodium chloride, 10 μM ZnCl. Sub 2, 10 mM CaCl2, 100 mM Tris-Cl pH7.5, 0.05% Brij-35), containing 1.0% DMSO from the substrate and inhibitor additions. The substrate concentration used in the assays is 5 μM. The assays are carried out at 20-25° C. […] The reaction mixtures are added in duplicate into appropriate wells of a 384-well assay plate. The reaction mixtures are preincubated with the inhibitors for 60 minutes The reactions are started by the addition of MMP substrate, and the fluorescence intensity changes are measured after 60 minutes The apparent enzyme activity in the presence of an inhibitor is then compared with that in the absence of any inhibitor to determine the inhibition effect of the inhibitor.

Collagenase-3 (MMP-13) = Collagenase-3 (MMP-13) (Homo sapiens, UniProt P45452); test: Collagenase-3 (MMP-13) inhibitory activity, fluorogenic peptide substrate assay; format: biochemical
Experimental: as §1
Collagenase-3 (MMP-13) inhibitory activity is determined as described above. Recombinant pro-collagenase-3 is activated with 1 mM APMA, and stored in the assay buffer after extensive dialysis in the assay buffer.

[1] = substrate 5 μM, 60 min preincubation, 20-25° C., read-out: MMP2 IC50
[2] = recombinant pro-collagenase-3 activated with 1 mM APMA, read-out: MMP13 IC50

IC50 (Gelatinase (MMP-2); [1]) [nM] | IC50 (Collagenase-3 (MMP-13); [2]) [nM] | IC50 (Gelatinase (MMP-2); read-out: IC50 (Gelatinase (MMP-2) inhibitory activity)) [nM] | IC50 (Collagenase-3 (MMP-13); read-out: IC50 (Collagenase-3 (MMP-13) inhibitory activity)) [nM] | SMILES
853 | 95.7 | – | – | O=C(NO)[C@H]1CC=CCN1S(=O)(=O)c1cnc2ccccc2c1 [Example 72, (R)-1-(Quinoline-3-sulfonyl)-1,2,3,6-tetrahydro-pyridine-2-carboxylic acid hydroxyamide]
27.8 | 1.4 | – | – | O=C(NO)[C@H]1CC=C(c2ccccc2)CN1S(=O)(=O)c1ccc2ccccc2c1 [Example 39, (R)-1-(Naphthalene-2-sulfonyl)-5-phenyl-1,2,3,6-tetrahydro-pyridine-2-carboxylic acid hydroxyamide]
81.3 | 3.1 | – | – | CC(=O)Nc1ccc2cc(S(=O)(=O)N(CCC(C)C)[C@@H](C(=O)NO)C(C)C)ccc2c1 [Example 55, 2-[(6-Acetylamino-naphthalene-2-sulfonyl)-(3-methyl-butyl)-amino]-N-hydroxy-3-methyl-butyramide]
92.7 | 50.9 | – | – | O=C(NO)C(NS(=O)(=O)c1ccc2ccccc2c1)C1CCOCC1 (centres unmarked) [Example 11, N-Hydroxy-2-(naphthalene-2-sulfonylamino)-2-(tetrahydro-pyran-4-yl)-acetamide]
> 3000 | 1580 | – | – | CC(C)CCNc1ccc2ccc(S(=O)(=O)N(CCC(C)C)[C@@H](C(=O)NO)C(C)C)cc2c1 [Example 57, N-Hydroxy-3-methyl-2-{(3-methyl-butyl)-[7-(3-methyl-butylamino)-naphthalene-2-sulfonyl]-amino}-butyramide]
51.8 | 1.1 | – | – | COc1c(S(=O)(=O)N(CCC(C)C)[C@@H](C(=O)NO)C(C)C)ccc2ccccc12 [Example 79, (R)—N-Hydroxy-2-[(1-methoxy-naphthalene-2-sulfonyl)-(3-methyl-butyl)-amino]-3-methyl-butyramide]
82.2 | 1 | – | – | CC(C)[C@H](C(=O)NO)N(CCCc1ccccc1)S(=O)(=O)c1ccc2cc(N)ccc2c1 [Example 32, 2-[(6-Amino-naphthalene-2-sulfonyl)-(3-phenyl-propyl)-amino]-N-hydroxy-3-methyl-butyramide]
451 | 727 | – | – | O=C(NO)C1(NS(=O)(=O)c2ccc3ccccc3c2)CCCCC1 [Example 19, 1-(Naphthalene-2-sulfonylamino)-cyclohexanecarboxylic acid hydroxyamide]
> 300 | 190 | – | – | CC(C)[C@H](C(=O)NO)N(CCCc1ccccc1)S(=O)(=O)c1ccc2ccc(N)cc2c1 [Example 38, 2-[(7-Amino-naphthalene-2-sulfonyl)-(3-phenyl-propyl)-amino]-N-hydroxy-3-methyl-butyramide]
779 | 118 | 55 | ~113 | CC(C)CCN([C@@H](C(=O)NO)C(C)C)S(=O)(=O)c1ccc2ccccc2c1Cl [Example 80, 2-[(1-Chloro-naphthalene-2-sulfonyl)-(3-methyl-butyl)-amino]-N-hydroxy-3-methyl-butyramide]
30.1 | 1.8 | – | – | C=CC1=CCN(S(=O)(=O)c2ccc3ccccc3c2)[C@@H](C(=O)NO)C1 [Example 44, (R)-1-(Naphthalene-2-sulfonyl)-4-vinyl-1,2,3,6-tetrahydro-pyridine-2-carboxylic acid hydroxyamide]
2860 | 2260 | – | – | CC(C)CCN(C(C)(C)C(=O)NO)S(=O)(=O)c1ccc2ccccc2c1 [Example 65, N-Hydroxy-2-methyl-2-[(3-methyl-butyl)-(naphthalene-2-sulfonyl)-amino]-propionamide]
> 1000 | 52.1 | – | – | CC(C)CCN([C@@H](C(=O)NO)C(C)C)S(=O)(=O)c1ccc2ccc(N)cc2c1 [Example 84, 2-[(7-Amino-naphthalene-2-sulfonyl)-(3-methyl-butyl)-amino]-N-hydroxy-3-methyl-butyramide]
> 3000 | 672 | – | – | CC(C)CCN([C@@H](C(=O)NO)C(C)C)S(=O)(=O)c1ccc2ccccc2c1O [Example 1, (R)—N-Hydroxy-2-[(1-hydroxy-naphthalene-2-sulfonyl)-(3-methyl-butyl)-amino]-3-methyl-butyramide]
12.5 | 0.9 | – | – | CC1=CC[C@H](C(=O)NO)N(S(=O)(=O)c2ccc3ccccc3c2)C1 [Example 60, (R)-5-Methyl-1-(naphthalene-2-sulfonyl)-1,2,3,6-tetrahydro-pyridine-2-carboxylic acid hydroxyamide]
765 | 225 | – | – | CC(C)(C)[C@@H](NS(=O)(=O)c1ccc2ncccc2c1)C(=O)NO [Example 92, (R)—N-Hydroxy-3,3-dimethyl-2-(quinoline-6-sulfonylamino)-butyramide]
350 | 293 | – | – | O=C(NO)[C@H]1CCCN1S(=O)(=O)c1ccc2ccccc2c1 (stereo in doubt) [Example 52, 1-(Naphthalene-2-sulfonyl)-pyrrolidine-2-carboxylic acid hydroxyamide]
18.6 | 1.7 | – | – | O=C(NO)[C@H]1CC=CCN1S(=O)(=O)c1ccc2ccccc2c1 [Example 26, (R)-1-(Naphthalene-2-sulfonyl)-1,2,3,6-tetrahydro-pyridine-2-carboxylic acid hydroxyamide]
90.4 | 3.4 | – | – | C=CCN([C@@H](C(=O)NO)C(C)C)S(=O)(=O)c1ccc2ccccc2c1 [Example 24, (R)-2-[Allyl-(naphthalene-2-sulfonyl)-amino]-N-hydroxy-3-methyl-butyramide]
61.2 | 2.1 | – | – | CC(C)[C@H](C(=O)NO)N(CCOc1ccccc1)S(=O)(=O)c1ccc2ccccc2c1 [Example 30, N-(2-phenoxyethyl)-N-(naphthalene-2-sulfonyl)-D-valine hydroxamic acid]
1130 | 38.7 | – | – | CC(C)[C@H](C(=O)NO)N(CCOc1ccc(F)cc1)S(=O)(=O)c1ccc2ccccc2c1 [Example 41, N-(2-(4-fluorophenoxy)ethyl)-N-(naphthalene-2-sulfonyl)-D-valine hydroxamic acid]
> 30000 | > 30000 | – | – | CC(=O)N(CCC(C)C)c1ccc2ccc(S(=O)(=O)N(CCC(C)C)[C@@H](C(=O)NO)C(C)C)cc2c1 [Example 71, 2-[{7-[Acetyl-(3-methyl-butyl)-amino]-naphthalene-2-sulfonyl}-(3-methyl-butyl)-amino]-N-hydroxy-3-methyl-butyramide]
3110 | 67.3 | – | – | Cc1ccc(C)c(OCCN([C@@H](C(=O)NO)C(C)C)S(=O)(=O)c2ccc3ccccc3c2)c1C [Example 75, N-(2-(2,3,6-trimethylphenoxy)ethyl)-N-(naphthalene-2-sulfonyl)-D-valine hydroxamic acid]
600 | 90 | – | – | CC(C)(C)[C@@H](NS(=O)(=O)c1ccc2ccccc2c1)C(=O)NO [Example 93, (R)—N-Hydroxy-3,3-dimethyl-2-(naphthalene-2-sulfonylamino)-butyramide]
12.1 | 0.3 | – | – | CSCC[C@H](C(=O)NO)N(CCC(C)C)S(=O)(=O)c1ccc2ccccc2c1 [Example 20, (R)—N-Hydroxy-2-[(3-methyl-butyl)-(naphthalene-2-sulfonyl)-amino]-4-methylsulfanyl-butyramide]
976 | 28.7 | – | – | CCOc1ccc2ccc(S(=O)(=O)N(Cc3cccnc3)[C@@H](C(=O)NO)C(C)C)cc2c1 [Example 68, 2-[(7-Ethoxy-naphthalene-2-sulfonyl)-pyridin-3-ylmethyl-amino]-N-hydroxy-3-methyl-butyramide]
975 | 132 | – | – | O=C(NO)[C@H]1CCCCN1S(=O)(=O)c1cnc2ccccc2c1 [Example 50, (R)-1-(Quinoline-3-sulfonyl)-piperidine-2-carboxylic acid hydroxyamide]
898 | 16.1 | – | – | CC(C)[C@H](C(=O)NO)N(CCOc1ccccc1Cl)S(=O)(=O)c1ccc2ccccc2c1 [Example 64, N-(2-(2-chlorophenoxy)ethyl)-N-(naphthalene-2-sulfonyl)-D-valine hydroxamic acid]
157 | 153 | – | – | CS(=O)(=O)CCC(NS(=O)(=O)c1ccc2ccccc2c1)C(=O)NO (centres unmarked) [Example 18, N-Hydroxy-4-methanesulfonyl-2-(naphthalene-2-sulfonylamino)-butyramide]
2900 | 1310 | – | – | CC(=O)Nc1ccc2cc(S(=O)(=O)N(CCCc3ccccc3)[C@@H](C(=O)NO)C(C)C)ccc2c1 [Example 34, 2-[(6-Acetylamino-naphthalene-2-sulfonyl)-(3-phenyl-propyl)-amino]-N-hydroxy-3-methyl-butyramide]
